Laboratory results published in patent publication US12611387B2, “Compound and composition for inducing neuroprotection” (REST THERAPEUTICS, priority 2020, dated 2026).

Experiments:
[1] = tested on: Aβ25-35 oligomer-intoxicated mice; assay: Passive avoidance test, symptomatic treatment; assay type: in vivo; conditions: symptomatic design; for improvement in cognitive impairment in the passive avoidance test, effective doses: doses 0.1, 0.3, 1.0, 3 and 10 mg/Kg i.p.; for aggravating effect on amnestic symptoms in the passive avoidance test: intoxicated mice, memantine at 10 mg/Kg
Description: (§1) The test compounds were tested for their ability to decrease the cognitive symptoms of Aβ25-35 oligomer-induced neurodegeneration, i.e. their ability to provide symptomatic anti-amnestic treatment (FIGS. 1A and 1B). In brief, to test the symptomatic effect of the test compounds, they were administered 8 days after the icy injection of the Aβ25-35 oligomers, 30 minutes before the YMT and PAT memory tests were conducted or 30 minutes before the test, but after the training session, in the case of the MWT or ORT (FIG. 1A). The Hamlet Test® (FIG. 1B) involves a 2-week training session (4 hr/day) followed by a test (max. 10 min) under water deprivation conditions and under normal conditions; the Aβ25-35 peptide is injected after this first test. After one week, the compounds are administered and a second test under water deprivation conditions and under normal conditions is performed 30 min after injection. This test measures spatial-temporal disorientation, a major warning sign in Alzheimer's disease (Crouzier et al., 2018).
This test measures non-spatial (contextual) long-term memory. The apparatus used for this test was a box with two compartments (15×20×15 cm high), one illuminated with white PVC walls and the other in the dark with black PVC walls and a grid floor. A guillotine door separated the compartments. A 60 W lamp was positioned 40 cm above the box and illuminated the white compartment. Electric shocks (0.3 mA for 3 s) could be delivered to the grid floor using a generator (Lafayette Instruments, Lafayette, USA). The test comprised a training session and a test session. The guillotine door was closed during the training session. Each mouse was placed in the white compartment. After 5 seconds, the door was raised. When the mouse entered the darkened compartment and placed all four feet in contact with the grid floor, the door was closed and the electric shocks were delivered for 3 seconds. The time taken by the mouse to re-enter the darkened compartment (STL-Tg) and the number of vocalizations were recorded. The test session was conducted 24 hours after the training session. Each mouse was placed back into the illuminated white compartment. After 5 s the door was raised, the step-through latency (STL-R), i.e. the time it took the mouse to enter the darkened compartment, was measured. The maximum duration was 300 s. Mice with a STL-Tg>30 s or a STL-Tg and a STL-R<10 s were not considered for the test. The attrition rate was routinely 5% (Meunier et al., 2006, 2013; Villard et al., 2009, 2011). A mouse with impaired memory abilities will have a lower STL-R than a mouse with normal abilities. […]

[2] = tested on: Aβ25-35 oligomer-intoxicated mice; assay: Hamlet test, symptomatic treatment; assay type: in vivo, C57Bl/6j mice; conditions: 0.3 mg/Kg, symptomatic design
Description: The test compounds were tested for their ability to decrease the cognitive symptoms of Aβ25-35 oligomer-induced neurodegeneration, i.e. their ability to provide symptomatic anti-amnestic treatment (FIGS. 1A and 1B). In brief, to test the symptomatic effect of the test compounds, they were administered 8 days after the icy injection of the Aβ25-35 oligomers, 30 minutes before the YMT and PAT memory tests were conducted or 30 minutes before the test, but after the training session, in the case of the MWT or ORT (FIG. 1A). […]
The Hamlet Test® device, with a diameter of 1.2 m, comprises a central square (the agora) and streets that radiate out therefrom and lead to functionalised compartments or houses that allow a physiological function to be met or that enrich the environment. The walls and streets of the hamlet were made of infrared-transparent PVC, the test room was uniformly lit (200 Lux), infrared diodes were placed under the floor of the hamlet and an infrared camera recorded the behaviour of the animals. […]
This test was described by Crouzier et al. (2018 a and b). […] The exploratory behaviour was recorded alongside the time taken to find the Drink house and the number of errors made (number of entries into a street not leading to the Drink house). […] A disorientation index (DI) was calculated for each variable (time to find the drink house, number of errors): […]

[3] = tested on: Aβ25-35 oligomer-intoxicated mice; assay: Morris water maze, symptomatic treatment; assay type: in vivo; conditions: symptomatic design (not shown)
Description: as §1, with “After one week, the compounds are administered and a second test under water deprivation conditions and under normal conditions is performed 30 min after injection. This test measures spatial-temporal disorientation, a major warning sign in Alzheimer's disease (Crouzier et al., 2018).” left out
This test is used to assess long-term spatial reference memory. […] The animals' swimming behaviour was recorded (Videotrack® software, Viewpoint), and the trajectories, latencies and distances covered were measured. […] Median latency (time taken to find the platform) was calculated for each training day and expressed for the group as the mean latency±standard deviation. […] Each mouse was left in the water for 60 seconds and its swimming behaviour was recorded. The time spent in the north-eastern quadrant, which originally contained the platform (T), was measured and compared to the average time spent in the other quadrants (o).

NMDA receptors = conditions: described in WO 2014/191424; cited from earlier work

| SMILES | improvement in cognitive impairment in the passive avoidance test, effective doses [1] | aggravating effect on amnestic symptoms in the passive avoidance test [1] | disorientation index calculated for errors [2] | disorientation index calculated for latency [2] | anti-amnestic effect in Morris water maze [3] | affinity for NMDA receptors (NMDA receptors) |
| --- | --- | --- | --- | --- | --- | --- |
| NC12CC3CC(C1)CC(CCF)(C3)C2 [FENM, 3-(2-fluoroethyl)adamantan-1-amine] | effective at 0.1; 0.3 and 1 mg/Kg | does not exert an aggravating effect on amnestic symptoms | reduced to the level of those of the untreated, non-intoxicated mice | reduced to the level of those of the untreated, non-intoxicated mice | confirmed | of an order of magnitude that is similar to that of memantine |
| CC12CC3CC(C)(C1)CC(N)(C3)C2 [memantine, 3,5-Dimethyl-1-adamantanamine, reference compound] | significant improvement in cognitive impairment by memantine was observed at the 0.3 mg/Kg memantine dose only | worsens the cognitive symptoms of intoxicated mice when injected at 10 mg/Kg |  |  |  |  |
